ChEMBL document CHEMBL3885861, “Open TG-GATES”

Organism: Rattus norvegicus
Test: Open TG-GATES - Regimen: Single
Format: toxicity, organism-based, Sprague-Dawley
Parameters: regimen Single, gender Male, age 6 weeks
Settings: in vivo, po, 300 mg/kg, route gavage, dose level Middle; for APTT / Bas / Eos / Fbg / Hb / Ht / Lym / MCH / MCHC / MCV / Mono / Neu / PT / Plat / RBC / Ret / WBC: tissue Blood; for KIDNEY_L / KIDNEY_R / KIDNEY_TOTAL: tissue Kidney; for LIVER: tissue Liver; for A/G / ALP / ALT / AST / BUN / CRE / Ca / Cl / DBIL / GLC / IP / K / LDH / Na / PL / RALB / TBIL / TC / TG / TP / gamma-GTP: tissue Plasma

SMILES: CNC(=C[N+](=O)[O-])NCCSCc1ccc(CN(C)C)o1 [RANITIDINE]
- TERMINAL_BW (9 h): 211.5 g
- APTT (9 h): 19.5 s
- Bas (9 h): 0%
- Eos (9 h): 1%
- Fbg (9 h): 241 mg/dL
- Hb (9 h): 13.3 g/dL
- Ht (9 h): 38.2%
- Lym (9 h): 67.8%
- MCH (9 h): 21.6 pg
- MCHC (9 h): 34.7%
- MCV (9 h): 62.3 fL
- Mono (9 h): 2.6%
- Neu (9 h): 26%
- PT (9 h): 12.7 s
- Plat (9 h): 116.8 x10_4/uL
- RBC (9 h): 614.4 x10_4/ul
- Ret (9 h): 7.2%
- WBC (9 h): 76 x10_2/uL
- KIDNEY_L (9 h): 1 g
- KIDNEY_R (9 h): 1 g
- KIDNEY_TOTAL (9 h): 1.9 g
- LIVER (9 h): 9.2 g
- A/G (9 h): 1.6
- ALP (9 h): 741.8 IU/L
- ALT (9 h): 32 IU/L
- AST (9 h): 61 IU/L
- BUN (9 h): 9.8 mg/dL
- CRE (9 h): 0.4 mg/dL
- Ca (9 h): 10.5 mg/dL
- Cl (9 h): 103.8 meq/L
- DBIL (9 h): 0.074 mg/dL
- GLC (9 h): 204.6 mg/dL
- IP (9 h): 8.4 mg/dL
- K (9 h): 3.6 meq/L
- LDH (9 h): 120.6 IU/L
- Na (9 h): 141.6 meq/L
- PL (9 h): 143.8 mg/dL
- RALB (9 h): 3.4 g/dL
- TBIL (9 h): 0.1 mg/dL
- TC (9 h): 76.4 mg/dL
- TG (9 h): 46 mg/dL
- TP (9 h): 5.6 g/dL
- gamma-GTP (9 h): 1.4 IU/L
- TERMINAL_BW (24 h): 230.2 g
- APTT (24 h): 23.9 s
- Bas (24 h): 0%
- Eos (24 h): 1%
- Fbg (24 h): 225.4 mg/dL
- Hb (24 h): 13.6 g/dL
- Ht (24 h): 38.7%
- Lym (24 h): 80.6%
- MCH (24 h): 22.5 pg
- MCHC (24 h): 35%
- MCV (24 h): 64.2 fL
- Mono (24 h): 2.4%
- Neu (24 h): 14%
- PT (24 h): 12.3 s
- Plat (24 h): 125.9 x10_4/uL
- RBC (24 h): 603.2 x10_4/ul
- Ret (24 h): 6.3%
- WBC (24 h): 104.2 x10_2/uL
- KIDNEY_L (24 h): 1 g
- KIDNEY_R (24 h): 1 g
- KIDNEY_TOTAL (24 h): 2 g
- LIVER (24 h): 11.2 g
- A/G (24 h): 1.7
- ALP (24 h): 1036.4 IU/L
- ALT (24 h): 33.4 IU/L
- AST (24 h): 63.2 IU/L
- BUN (24 h): 15.8 mg/dL
- CRE (24 h): 0.4 mg/dL
- Ca (24 h): 10.7 mg/dL
- Cl (24 h): 102.2 meq/L
- DBIL (24 h): 0.086 mg/dL
- GLC (24 h): 196.6 mg/dL
- IP (24 h): 7.6 mg/dL
- K (24 h): 4 meq/L
- LDH (24 h): 132.6 IU/L
- Na (24 h): 140 meq/L
- PL (24 h): 152.8 mg/dL
- RALB (24 h): 3.4 g/dL
- TBIL (24 h): 0.1 mg/dL
- TC (24 h): 79.2 mg/dL
- TG (24 h): 78.6 mg/dL
- TP (24 h): 5.3 g/dL
- gamma-GTP (24 h): 1 IU/L
